Here are results for five compounds from patent US5861439A, “Method for enhanced electrotransport agent delivery” (priority 1994, dated 1999).

Read-outs that look alike come from different tables or passages of the source. A value given as a limit tells only on which side of the number the result lay.

Series [1] concerns human cadaver skin. Particulars: for increase in the rate of delivery of ketoprofen: electrotransport, versus control (no enhancer); for Normalized Skin Resistance: ketoprofen electrotransport, steady state, divided by control (no enhancer), 100 μA/cm^2, 32° C. As for the experimental part: (§1) Skin strips having a thickness of 1 mm were removed from a human cadaver with an electric dermatome. These skin strips were placed in polyethylene bags, sealed and placed in a refrigerator at 4° C. for temporary storage. Prior to use in an electrotransport cell, the skin strips were placed in 1 liter beakers containing water at 60° C. for about 90 seconds, and gently stirred. The skin strips were then removed, and placed onto the absorbent side of a piece of BENCHKOTE fabric with their dermis side down. The epidermis was removed from each strip with a round-tip spatula, and flat tipped tweezers to retain the dermis. Each epidermis, stratum corneum side up, was then transferred to a 5 cm deep PYREX glass tray filled with water. Each floating epidermis was stretched essentially flat, and then removed from the water, and 2.2 cm diameter disks of each epidermis were punched out of areas having no observable surface damage. The disks were stored at 4° C. in a sealed container with water droplets to maintain their moisture.
(§2) The disks were mounted between the donor and receptor compartments, with the stratum corneum side facing the donor compartment, of a 2-compartment polycarbonate electrotransport permeation cell. The volume of each compartment was about 2 mL and the area between the two compartments, ie, the exposed area for transport, was about 1.26 cm^2.
(§3) An aqueous solution of the drug being transdermally delivered and the selected permeation enhancer composition, if any, was placed in the donor compartment. Dulbecco's phosphate buffered saline (approximately 0.15N NaCl, pH 7.0) was placed in the receptor compartment.
(§4) The rate of transport of drug and the electrical resistance of the skin were monitored throughout the experiments while applying an electric current.
(§5) The cell was maintained at 32° C. by a Haake Model D1 heating block/water bath. The electrodes were connected to a galvanostat, which applied a constant current of 126 μA (current density of 100 μA/cm^2) and monitored the voltage drop across the skin by placing two Ag/AgCl junction reference electrodes, one each in the donor and receptor solutions, and measuring the voltage difference (AV) between the electrodes.
(§6) The resistance of the skin (R) was obtained from Ohm's law:
(§7) where i equals the applied current (ie, 126 μA).
The following experiments were conducted to assess the effect of one composition of the invention, containing ethanol and dodecanol, on the transdermal delivery of sodium ketoprofen (ketoprofen anions) by electrotransport from a cathodic electrode. The electrotransport delivery of ketoprofen in the presence of various enhancers was assessed side-by-side for comparative purposes. The enhancers used were as follows: (i) ethanol alone; (ii) dodecanol alone; (iii) no enhancer; (iv) ethanol and dodecanol. […] A silver chloride composite polymer electrode (cathode) was placed in the donor compartment, and a silver foil electrode (anode) was placed in the receptor compartment.
Each experiment was started by connecting the power source to the electrodes, and samples were automatically taken from the receptor compartment every one to two hours, except for overnight experimentation, using an Isco Model 2230 autosampler and a metering pump. The concentration of ketoprofen in the samples was determined by high performance liquid chromatography (HPLC) using a Shimadzu Model SCL-6B chromatograph. Each run was conducted in triplicate, including the control, to minimize errors. All cells were set-up with tissue from the same cadaver. The selected permeation enhancer composition was placed in the donor compartment, while the control cell's donor compartment contained no enhancer.

For series [2], the system named is human cadaver skin. Conditions: for Normalized Skin Resistance (after 5 hrs): metoclopramide electrotransport, n=3, 100 μA/cm^2, 32° C. The procedure: as §1, §2, §3, §4, §5, §6, §7
The experimental conditions were identical to those described in Example 1, except an aqueous solution of metoclopramide HCl, instead of sodium ketoprofen, was placed in the donor compartment. In addition, the silver chloride cathode was placed in the receptor compartment and the silver foil anode was placed in the donor compartment since metoclopramide ions are cationic as opposed to ketoprofen ions which are anionic. The concentration of metoclopramide in the donor solution was about 100 mg metoclopramide/mL, and saline pH 7 was placed in the receptor compartment. The system was maintained at 32° C. and a constant electric current of 100 μA/cm^2 was applied throughout the procedure.
The mass flux and skin resistance values were normalized versus the control. […] The skin resistance (which was calculated from the measured cell voltage ΔV using Ohm's law, […]) was also normalized with respect to the value obtained by electrotransport of metoclopramide in the absence of any permeation enhancer (rightmost column).

In series [3] the test system is skin. Particulars: cited from earlier work; for rate of electrotransport of sotalol (in words): compared to electrotransport without DDAA or azone (control).
In series [4] the test system is skin. Particulars: relative to sotalol alone (control); no current; cited from earlier work.

As to `CCCCCCCCCCCCO` [Dodecanol, dodecanol], in the series on human cadaver skin [1], the “reduction in skin resistance” value is reported as ~60% and the “increase in the rate of delivery of ketoprofen” value came to 93%. Besides, the “Normalized Skin Resistance” value in the series on human cadaver skin [1] (enhancer dodecanol <100 mM) is given as 0.39.
In the case of `CCO` [Ethanol, ethanol], in the series with human cadaver skin [1], the “reduction in skin resistance” value was > 50%. In the series with human cadaver skin [1], the “increase in the rate of delivery of ketoprofen” value stood at 24%. Further, the “Normalized Skin Resistance” value with human cadaver skin [1] (enhancer 25% v/v ethanol) came out at 0.47. For the same compound, the “effect of difference in ethanol concentration (25% v/v alone, 20% v/v with dodecanol)” value in the series with human cadaver skin [1] (in words, said to be confirmed in Example 2) is given as “does not significantly alter its effect”. The “mass flux of metoclopramide (in words)” value with human cadaver skin [2] is reported as “not to enhance, but to actually decrease, the mass flux of metoclopramide”. In addition, the “Normalized Skin Resistance (after 5 hrs)” value in the series on human cadaver skin [2] (ethanol 10 wt %, versus no enhancer) was determined as 1.32; in the series on human cadaver skin [2] (ethanol 20 wt %, versus no enhancer), 1.13; in the series on human cadaver skin [2] (ethanol 30 wt %, versus no enhancer) it was 1.26. Moreover, the “resistance of the skin during electrotransport delivery of metoclopramide (in words)” value with human cadaver skin [2] (ethanol alone, versus no enhancer) is “increase the resistance of the skin”.
Take `CCCCCCCCCCCCN1CCCCCC1=O` [azone]: the “rate of electrotransport of sotalol (in words)” value in the series with skin [3] is listed as “actually reduced the rate of electrotransport delivery of the agent”. In addition, the “rate of passive permeation of sotalol (in words)” value in the series on skin [4] was “increase the rate of passive permeation”.
For the compound `CC(C)NCC(O)c1ccc(NS(C)(=O)=O)cc1` (centres unmarked) [sotalol], the “rate of delivery of sotalol with passage of an electric current (in words)” value with skin [3] (compared to its passive rate (control)) is “increase the rate of delivery of sotalol compared to that of its passive rate”.
Regarding N, N-dimethylamino acetate [DDAA], the “rate of electrotransport of sotalol (in words)” value with skin [3] is on record as “actually reduced the rate of electrotransport delivery of the agent”. The “rate of passive permeation of sotalol (in words)” value in the series on skin [4] is given as “increase the rate of passive permeation”.
